Experimental findings from patent US5597820A, “1, 4-benzoxazine derivative and pharmaceutical compositions containing the same” (Kanebo, Ltd., priority 1994, dated 1997) are described below.

pIC50: −log10 of the molar value.

For experiment [1], the target named is T1, Na^+ /H^+ exchange (Rattus norvegicus, UniProt P26431).
T1 construct: A supernatant was separated to prepare platelet-rich plasma; endogenous in cells; host or cells: platelets in platelet-rich plasma from male Wistar rats (abdominal aorta blood)
Briefly: Na^+ /H^+ Exchange inhibitory activity (sodium propionate-induced swelling of platelets). It counts as cell-based, rat (male Wistar rats). Particulars: rat platelet-rich plasma, 37° C. Here is the method:
The compounds of the present invention were assessed for their Na^+ /H^+ exchange inhibitory activity based on an activity to inhibit sodium propionate-induced swelling of platelets in accordance with the method of Rosskoph et al. [Journal of Hypertension, 9, 231-238 (1991)].
First, platelet-rich plasma was prepared in accordance with the method of Mammen et al. [Diabetes Research and Clinical Practice, 9(3), 265-272 (1990)]. Briefly, male Wistar rats weighing 190 to 420 g were abdominally operated under anesthesia with ether and blood was taken from the abdominal aorta. For inhibiting blood coagulation, ACD solution (a mixture of 65 mM citric acid, 85 mM sodium citrate, 11 mM dextrose) was added to blood and this treated blood was centrifuged at 90× g for 10 minutes. A supernatant was separated to prepare platelet-rich plasma.
Then, a solution of the test compounds in dimethylsulfoxide was added to 140 mM sodium propionate buffer solution. To this mixture was added the platelet-rich plasma prepared above and a decrease in optical density was recorded with the passage of time at 37° C. using a platelet aggregometer (turbidimeter) and a X-Y recorder to calculate a decrease rate in optical density after mixing with platelet-rich plasma [decrease rate in optical density in the presence of the test compounds (D)]. On the other hand, the solvent dimethylsulfoxide alone was used instead of the solution of the test compounds and the decrease in optical density was recorded in the similar manner to calculate a decrease rate in optical density [control (C)]. A swelling inhibitory rate (%) was calculated using the following formula:
Swelling inhibitory rate (%)=(1-D/C)×100

Experiment [2] relates to reperfusion arrhythmia. Briefly: Inhibitory activity against reperfusion arrhythmia (rat acute myocardial infarction model). It counts as in vivo, rat (male Sprague-Dawley rats). Particulars: femoral vein. Here is the method: Using a rat acute myocardial infarction model, the compounds of the present invention were assessed for their inhibitory activity against reperfusion arrhythmia in accordance with the method of […] al. [European Journal of Pharmacology, 194, 7-10 (1991)]. Male Sprague-Dawley rats (weighing 310 to 490 g) were anesthetized by intraperitoneal administration of sodium pentobarbital (50 mg/kg). Under anesthesia, the rats were cannulated via trachea and the cannula was linked to a respirator. An electrocardiogram (the lead II) was obtained from electrodes attached to the limbs using bioelectric amplifier while maintaining the body temperature at 37° C. The chest of the rats were opened at the left fifth intercostal space and the pericardium was cut open to reveal the heart. Then a solution of the test compound in a mixed solvent of polyethylene glycol 400, ethanol and a physiological saline [3:3:14 (v/v)] was administered into the femoral vein. Ten minutes after the administration of the compound, the origin of the left coronary artery was occluded. After occlusion for 5 minutes, reperfusion was carried out for 10 minutes and a duration (second) of a ventricular fibrillation after reperfusion was measured from the electrocardiogram (mean±standard error, n=3 to 10). The ventricular fibrillation was assessed in accordance with the guideline of The Lambeth Convention [Cardiovascular Research, 22, 447-455 (1988)]. On the other hand, the mixed solvent of polyethylene glycol 400, ethanol and a physiological saline [3:3:14 (v/v)] alone was used as a control and a duration (second) of the ventricular fibrillation was measured in a similar manner. Using male Sprague-Dawley rats weighing 310 to 440 g, the duration (second) of the ventricular fibrillation was measured in the same manner as in Test 1 (n=4 to 10). Using male Sprague-Dawley rats weighing 310 to 400 g, the duration (second) of the ventricular fibrillation was measured in the same manner as in Test 1 (n=4 to 6).

The test system of experiment [3] is myocardial infarction lesion. Briefly: Activity to reduce myocardial infarction lesion (rat acute myocardial infarction model). The experiment is classed as in vivo, rat (male Sprague-Dawley rats). Particulars: femoral vein. Here is the method: Using a rat acute myocardial infarction model, the compounds of the present invention were assessed for their activity to reduce myocardial infarction lesion in accordance with the method of Petty et al. [European Journal of Pharmacology, 192, 383-388 (1991)]. Male Sprague-Dawley rats (weighing 320 to 430 g) were anesthetized by intraperitoneal administration of sodium pentobarbital (50 mg/kg). Under anesthesia, the rats were cannulated via trachea and the cannula was linked to a respirator and then the body temperature was maintained at 37° C. The chest of the rats were opened at the left fifth intercostal space and the pericardium was cut open to reveal the heart. Then a solution of the test compound in a mixed solvent of polyethylene glycol 400, ethanol and a physiological saline [3:3:14 (v/v)] was administered into the femoral vein. Ten minutes after the administration of the compound, the origin of the left coronary artery was occluded. After occlusion for 30 minutes, reperfusion was carried out for 2 hours. After reperfusion, the heart was removed and the origin of the left coronary artery was ligated again. The heart was cannulated via the aorta and a 0.025% solution of Evans blue was perfused using a syringe pump to distinguish an ischemic region (not stained with Evans blue) and a non-ischemic region (stained with Evans blue). The ischemic region was incubated in a 0.1% triphenyltetrazolium chloride (TTC) solution at 37° C. for 30 minutes to distinguish a TTC-stained region and a non-stained region (infarction region).

Setting [4] is: Test 2 (Table 4), 0.1 mg/kg, control 146.1 ± 5.9, **: p < 0.01.

T1 sequence (P26431 whole entry): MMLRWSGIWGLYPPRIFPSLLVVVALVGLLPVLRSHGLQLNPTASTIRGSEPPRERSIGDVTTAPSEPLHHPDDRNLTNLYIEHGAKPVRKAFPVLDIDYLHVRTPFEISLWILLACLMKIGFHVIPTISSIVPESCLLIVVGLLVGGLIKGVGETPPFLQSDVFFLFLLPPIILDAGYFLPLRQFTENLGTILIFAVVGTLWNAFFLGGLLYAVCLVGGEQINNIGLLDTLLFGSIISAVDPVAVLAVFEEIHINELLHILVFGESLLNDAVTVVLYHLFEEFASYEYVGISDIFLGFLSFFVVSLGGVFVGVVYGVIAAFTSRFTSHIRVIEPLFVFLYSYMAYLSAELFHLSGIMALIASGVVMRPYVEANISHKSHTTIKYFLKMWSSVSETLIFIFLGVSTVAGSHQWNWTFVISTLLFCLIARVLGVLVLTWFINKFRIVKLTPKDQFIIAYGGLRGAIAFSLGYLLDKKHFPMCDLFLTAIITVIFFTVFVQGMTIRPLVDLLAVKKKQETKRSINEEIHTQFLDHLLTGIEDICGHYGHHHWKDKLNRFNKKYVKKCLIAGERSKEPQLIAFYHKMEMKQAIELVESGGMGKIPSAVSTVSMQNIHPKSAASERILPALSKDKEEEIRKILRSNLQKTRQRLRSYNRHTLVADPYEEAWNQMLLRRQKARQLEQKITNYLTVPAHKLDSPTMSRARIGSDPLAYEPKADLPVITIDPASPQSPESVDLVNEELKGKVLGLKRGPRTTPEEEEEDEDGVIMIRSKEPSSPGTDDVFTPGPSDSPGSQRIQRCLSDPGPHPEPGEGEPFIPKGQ

Consider `N=C(N)NC(=O)c1nc(Cl)c(N)nc1N` [Amiloride, amiloride, reference compound], for which, in experiment [1], the negative logarithm of the IC50 (pIC50) – broadly, the negative decadic logarithm of the IC50, by convention in mol/L – is 4.89. On the same count and under the same terms, the value for `CC(C)N1C(=O)C(C)(C)Oc2cc(C(=O)N=C(N)N)ccc21` [Example 1, N-amidino-2,2-dimethyl-4-(2-propyl)-3-oxo-3,4-dihydro-2H-1,4-benzoxazine-7-carboxamide] was 6.70. In experiment [1], `CC1Oc2cc(C(=O)NC(=N)N)ccc2N(C(C)C)C1=O` (stereo not drawn) [Example 2, N-amidino-2-methyl-4-(2-propyl)-3-oxo-3,4-dihydro-2H-1,4-benzoxazine-7-carboxamide] showed a negative-log IC50 (pIC50) of 7.03. The “Duration (second) of ventricular fibrillation (mean ± standard error)” value (from here on “Duration (second) … (mean ± standard error)”) in experiment [2] (Test 1 (Table 3), 0.01 mg/kg, control 92.6 ± 20.2) was 118.9 ± 59.4 s; in experiment [2] (Test 1 (Table 3), 0.1 mg/kg, control 92.6 ± 20.2, *: p < 0.05), 19.1 ± 12.4 s; in experiment [2] (Test 1 (Table 3), 1 mg/kg, control 92.6 ± 20.2, *: p < 0.05), 0.0 ± 0.0 s. The “Infarction region/ischemic region (%) (mean ± standard error)” value came to 41.7 ± 10.3% in experiment [3] (Test 1 (Table 6), 0.01 mg/kg, control 51.4 ± 2.4); 35.6 ± 3.5% in experiment [3] (Test 1 (Table 6), 0.1 mg/kg, control 51.4 ± 2.4); 7.2 ± 4.9% in experiment [3] (Test 1 (Table 6), 1 mg/kg, control 51.4 ± 2.4, **: p < 0.01). In the case of `CC(C)N1C(=O)COc2cc(C(=O)NC(=N)N)ccc21` [Example 3, N-amidino-4-(2-propyl)-3-oxo-3,4-dihydro-2H-1,4-benzoxazine-7-carboxamide], the pIC50 in experiment [1] was 6.77.

`CCN1C(=O)C(C)Oc2cc(C(=O)NC(=N)N)ccc21` (stereo not drawn) [Example 4, N-amidino-4-ethyl-2-methyl-3-oxo-3,4-dihydro-2H-1,4-benzoxazine-7-carboxamide] gave a pIC50 in experiment [1] of 6.80. Consider `CC(C)N1C(=O)C(C)(C)Oc2ccc(C(=O)NC(=N)N)cc21.Cl` [Example 5, N-amidino-2,2-dimethyl-4-(2-propyl)-3-oxo-3,4-dihydro-2H-1,4-benzoxazine-6-carboxamide hydrochloride], for which the pIC50 in experiment [1] was 6.92. Further, in experiment [2] (setting [4]), the “Duration (second) … (mean ± standard error)” value is 80.2 ± 27.8 s. As for `CCN1C(=O)C(C)Oc2ccc(C(=O)NC(=N)N)cc21` (stereo not drawn) [Example 6, N-amidino-4-ethyl-2-methyl-3-oxo-3,4-dihydro-2H-1,4-benzoxazine-6-carboxamide], the pIC50 in experiment [1] was 6.54. As to `CCN1C(=O)C(C)(C)Oc2ccc(C(=O)NC(=N)N)cc21` [Example 7, N-amidino-2,2-dimethyl-4-ethyl-3-oxo-3,4-dihydro-2H-1,4-benzoxazine-6-carboxamide], in experiment [1], the negative-log IC50 (pIC50) is 6.42. Still for that read-out and setting: the same measure for `CC1Oc2cc(C(=O)NC(=N)N)ccc2NC1=O` (stereo not drawn) [Example 8, N-amidino-2-methyl-3-oxo-3,4-dihydro-2H-1,4-benzoxazine-7-carboxamide]: 6.09; for `CCC1Oc2cc(C(=O)NC(=N)N)ccc2N(C(C)C)C1=O` (stereo not drawn) [Example 9, N-amidino-2-ethyl-4-(2-propyl)-3-oxo-3,4-dihydro-2H-1,4-benzoxazine-7-carboxamide]: 7.47; for `CC1Oc2cc(C(=O)NC(=N)N)ccc2N(C2CCCC2)C1=O` (stereo not drawn) [Example 10, N-amidino-4-cyclopentyl-2-methyl-3-oxo-3,4-dihydro-2H-1,4-benzoxazine-7-carboxamide]: 7.21. As to `CCN1C(=O)COc2cc(C(=O)NC(=N)N)ccc21` [Example 12, N-amidino-4-ethyl-3-oxo-3,4-dihydro-2H-1,4-benzoxazine-7-carboxamide], the pIC50 in experiment [1] was 6.44. Still for that read-out and setting: the value for `CCC1Oc2cc(C(=O)NC(=N)N)ccc2N(CC)C1=O` (stereo not drawn) [Example 13, N-amidino-2,4-diethyl-3-oxo-3,4-dihydro-2H-1,4-benzoxazine-7-carboxamide] was 7.08; that for `CC[C@@H]1Oc2cc(C(=O)NC(=N)N)ccc2N(C(C)C)C1=O` [Example 14, (S)-N-Amidino-2-ethyl-4-(2-propyl)-3-oxo-3,4-dihydro-2H-1,4-benzoxazine-7-carboxamide] was 7.14; that for `CC[C@H]1Oc2cc(C(=O)NC(=N)N)ccc2N(C(C)C)C1=O` [Example 15, (R)-N-Amidino-2-ethyl-4-(2-propyl)-3-oxo-3,4-dihydro-2H-1,4-benzoxazine-7-carboxamide] was 7.44. The compound `CC[C@@H]1Oc2cc(C(=O)NC(=N)N)ccc2N(CC)C1=O` [Example 16, (S)-N-amidino-2,4-diethyl-3-oxo-3,4-dihydro-2H-1,4-benzoxazine-7-carboxamide] had a pIC50 in experiment [1] of 7.35. In experiment [1], `CC[C@H]1Oc2cc(C(=O)NC(=N)N)ccc2N(CC)C1=O` [Example 17, (R)-N-amidino-2,4-diethyl-3-oxo-3,4-dihydro-2H-1,4-benzoxazine-7-carboxamide] showed a pIC50 of 7.15. In experiment [1], `CC[C@H]1Oc2cc(C(=O)NC(=N)N)ccc2N(C(C)C)C1=O.Cl` [Example 18, (R)-N-Amidino-2-ethyl-4-(2-propyl)-3-oxo-3,4-dihydro-2H-1,4-benzoxazine-7-carboxamide hydrochloride] showed a pIC50 of 7.42. The “Duration (second) … (mean ± standard error)” value is 75.5 ± 29.2 s in experiment [2] (Test 2 (Table 4), 0.01 mg/kg, control 146.1 ± 5.9); 31.4 ± 20.6 s in experiment [2] (setting [4]); 0.0 ± 0.0 s in experiment [2] (Test 2 (Table 4), 1 mg/kg, control 146.1 ± 5.9, **: p < 0.01). In addition, the “Infarction region/ischemic region (%) (mean ± standard error)” value in experiment [3] (Test 2 (Table 7), 1 mg/kg, control 45.2 ± 4.1, **: p < 0.01) is listed as 21.7 ± 5.5%. In experiment [1], `CC[C@@H]1Oc2cc(C(=O)NC(=N)N)ccc2N(CC)C1=O.Cl` [Example 20, (S)-N-amidino-2,4-diethyl-3-oxo-3,4-dihydro-2H-1,4-benzoxazine-7-carboxamide hydrochloride] had a negative logarithm of the IC50 (pIC50) of 7.31. Moreover, the “Duration (second) … (mean ± standard error)” value in experiment [2] (setting [4]) turned out to be 27.2 ± 27.2 s. `CC[C@@H]1Oc2cc(C(=O)NC(=N)N)ccc2N(CC)C1=O.CS(=O)(=O)O` [Example 21, (S)-N-amidino-2,4-diethyl-3-oxo-3,4-dihydro-2H-1,4-benzoxazine-7-carboxamide methanesulfonate] had a pIC50 in experiment [1] of 7.05. For the same compound, in experiment [2] (Test 3 (Table 5), 0.1 mg/kg, control 171.0 ± 5.8, Example 19 *: p < 0.05, Example 21 **: p < 0.01), the “Duration (second) … (mean ± standard error)” value worked out at 69.0 ± 31.1 s.
